Source: publication PMC11968843, “Sulphostin-inspired N-phosphonopiperidones as selective covalent DPP8 and DPP9 inhibitors” (Nature Communications, 2025)

Legend:
Experiment in all cases: Competitive ABPP / direct target identification with alkyne probe 9 in HEK293 cell lysates
Type in all cases: binding, H. sapiens
[1] = system: HEK293 cell lysates (proteome-wide targets of probe 9)
[2] = molecular target: T1, HEK293 cell lysates (proteome-wide targets of probe 9) (Homo sapiens, UniProt Q01469); settings: protein FABP5
T1 construct: endogenous in cells; host or cells: HEK293 cell lysate

[3] = molecular target: T2, HEK293 cell lysates (proteome-wide targets of probe 9) (Homo sapiens, UniProt P37837); settings: protein TALDO1
T2 construct: endogenous in cells; host or cells: HEK293 cell lysate

[4] = molecular target: T3, HEK293 cell lysates (proteome-wide targets of probe 9) (Homo sapiens, UniProt P62805); settings: protein HIST1H4A
T3 construct: endogenous in cells; host or cells: HEK293 cell lysate

[5] = molecular target: T4, HEK293 cell lysates (proteome-wide targets of probe 9) (Homo sapiens, UniProt P11498); settings: protein PC
T4 construct: endogenous in cells; host or cells: HEK293 cell lysate

[6] = molecular target: T5, HEK293 cell lysates (proteome-wide targets of probe 9) (Homo sapiens, UniProt P14618); settings: protein PKM
T5 construct: endogenous in cells; host or cells: HEK293 cell lysate

[7] = molecular target: T6, HEK293 cell lysates (proteome-wide targets of probe 9) (Homo sapiens, UniProt P62826); settings: protein RAN
T6 construct: endogenous in cells; host or cells: HEK293 cell lysate

[8] = molecular target: T7, HEK293 cell lysates (proteome-wide targets of probe 9) (Homo sapiens, UniProt P22626); settings: protein HNRNPA2B1;HNRPA2B1
T7 construct: endogenous in cells; host or cells: HEK293 cell lysate

[9] = molecular target: T8, HEK293 cell lysates (proteome-wide targets of probe 9) (Homo sapiens, UniProt P12277); settings: protein CKB
T8 construct: endogenous in cells; host or cells: HEK293 cell lysate

[10] = molecular target: T9, HEK293 cell lysates (proteome-wide targets of probe 9) (Homo sapiens, UniProt P40926); settings: protein MDH2
T9 construct: endogenous in cells; host or cells: HEK293 cell lysate

[11] = molecular target: T10, HEK293 cell lysates (proteome-wide targets of probe 9) (Homo sapiens, UniProt P81605); settings: protein DCD
T10 construct: endogenous in cells; host or cells: HEK293 cell lysate

[12] = molecular target: T11, HEK293 cell lysates (proteome-wide targets of probe 9) (Homo sapiens, UniProt P62258); settings: protein YWHAE
T11 construct: endogenous in cells; host or cells: HEK293 cell lysate

[13] = molecular target: T12, HEK293 cell lysates (proteome-wide targets of probe 9) (Homo sapiens, UniProt P10809); settings: protein HSPD1
T12 construct: endogenous in cells; host or cells: HEK293 cell lysate

[14] = molecular target: T13, HEK293 cell lysates (proteome-wide targets of probe 9) (Homo sapiens, UniProt Q13085); settings: protein ACACA
T13 construct: endogenous in cells; host or cells: HEK293 cell lysate

[15] = molecular target: T14, HEK293 cell lysates (proteome-wide targets of probe 9) (Homo sapiens, UniProt Q99832); settings: protein CCT7
T14 construct: endogenous in cells; host or cells: HEK293 cell lysate

[16] = molecular target: T15, HEK293 cell lysates (proteome-wide targets of probe 9) (Homo sapiens, UniProt Q00839); settings: protein HNRNPU
T15 construct: endogenous in cells; host or cells: HEK293 cell lysate

[17] = molecular target: T16, HEK293 cell lysates (proteome-wide targets of probe 9) (Homo sapiens, UniProt P59998); settings: protein ARPC4
T16 construct: endogenous in cells; host or cells: HEK293 cell lysate

[18] = molecular target: T17, HEK293 cell lysates (proteome-wide targets of probe 9) (Homo sapiens, UniProt Q86TI2); settings: protein DPP9 (Dipeptidyl peptidase 9)
T17 construct: endogenous in cells; host or cells: HEK293 cell lysate

[19] = molecular target: T18, HEK293 cell lysates (proteome-wide targets of probe 9) (Homo sapiens, UniProt Q02790); settings: protein FKBP4
T18 construct: endogenous in cells; host or cells: HEK293 cell lysate

[20] = molecular target: T19, HEK293 cell lysates (proteome-wide targets of probe 9) (Homo sapiens, UniProt P61978); settings: protein HNRNPK
T19 construct: endogenous in cells; host or cells: HEK293 cell lysate

[21] = molecular target: T20, HEK293 cell lysates (proteome-wide targets of probe 9) (Homo sapiens, UniProt P10599); settings: protein TXN
T20 construct: endogenous in cells; host or cells: HEK293 cell lysate

[22] = molecular target: T21, HEK293 cell lysates (proteome-wide targets of probe 9) (Homo sapiens, UniProt P50914); settings: protein RPL14
T21 construct: endogenous in cells; host or cells: HEK293 cell lysate

[23] = molecular target: T22, HEK293 cell lysates (proteome-wide targets of probe 9) (Homo sapiens, UniProt P42704); settings: protein LRPPRC
T22 construct: endogenous in cells; host or cells: HEK293 cell lysate

[24] = molecular target: T23, HEK293 cell lysates (proteome-wide targets of probe 9) (Homo sapiens, UniProt P13639); settings: protein EEF2
T23 construct: endogenous in cells; host or cells: HEK293 cell lysate

[25] = molecular target: T24, HEK293 cell lysates (proteome-wide targets of probe 9) (Homo sapiens, UniProt P04075); settings: protein ALDOA
T24 construct: endogenous in cells; host or cells: HEK293 cell lysate

[26] = molecular target: T25, HEK293 cell lysates (proteome-wide targets of probe 9) (Homo sapiens, UniProt P78371); settings: protein CCT2
T25 construct: endogenous in cells; host or cells: HEK293 cell lysate

[27] = molecular target: T26, HEK293 cell lysates (proteome-wide targets of probe 9) (Homo sapiens, UniProt P68363); settings: protein TUBA1B
T26 construct: endogenous in cells; host or cells: HEK293 cell lysate

[28] = molecular target: T27, HEK293 cell lysates (proteome-wide targets of probe 9) (Homo sapiens, UniProt P36578); settings: protein RPL4
T27 construct: endogenous in cells; host or cells: HEK293 cell lysate

[29] = molecular target: T28, HEK293 cell lysates (proteome-wide targets of probe 9) (Homo sapiens, UniProt P26373); settings: protein RPL13
T28 construct: endogenous in cells; host or cells: HEK293 cell lysate

[30] = protein HIST1H1C;HIST1H1E;HIST1H1D
[31] = protein group Histone H2A type 1 (HIST1H2AG and others)

T14 sequence (Q99832 whole entry): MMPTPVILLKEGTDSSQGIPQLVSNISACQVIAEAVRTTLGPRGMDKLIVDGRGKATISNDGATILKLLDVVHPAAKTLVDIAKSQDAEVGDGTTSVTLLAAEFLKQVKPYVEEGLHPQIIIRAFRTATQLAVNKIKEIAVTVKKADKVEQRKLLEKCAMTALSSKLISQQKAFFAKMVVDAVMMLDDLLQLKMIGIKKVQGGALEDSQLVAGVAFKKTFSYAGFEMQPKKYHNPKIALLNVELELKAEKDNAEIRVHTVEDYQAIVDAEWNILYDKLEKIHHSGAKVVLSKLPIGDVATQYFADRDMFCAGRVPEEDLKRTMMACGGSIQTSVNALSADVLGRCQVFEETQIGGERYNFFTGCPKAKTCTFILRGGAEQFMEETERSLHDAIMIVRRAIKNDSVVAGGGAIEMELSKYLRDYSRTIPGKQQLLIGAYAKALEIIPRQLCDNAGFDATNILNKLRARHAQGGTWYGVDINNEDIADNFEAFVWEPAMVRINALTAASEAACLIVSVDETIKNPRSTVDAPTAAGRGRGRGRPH
T25 sequence (P78371 whole entry): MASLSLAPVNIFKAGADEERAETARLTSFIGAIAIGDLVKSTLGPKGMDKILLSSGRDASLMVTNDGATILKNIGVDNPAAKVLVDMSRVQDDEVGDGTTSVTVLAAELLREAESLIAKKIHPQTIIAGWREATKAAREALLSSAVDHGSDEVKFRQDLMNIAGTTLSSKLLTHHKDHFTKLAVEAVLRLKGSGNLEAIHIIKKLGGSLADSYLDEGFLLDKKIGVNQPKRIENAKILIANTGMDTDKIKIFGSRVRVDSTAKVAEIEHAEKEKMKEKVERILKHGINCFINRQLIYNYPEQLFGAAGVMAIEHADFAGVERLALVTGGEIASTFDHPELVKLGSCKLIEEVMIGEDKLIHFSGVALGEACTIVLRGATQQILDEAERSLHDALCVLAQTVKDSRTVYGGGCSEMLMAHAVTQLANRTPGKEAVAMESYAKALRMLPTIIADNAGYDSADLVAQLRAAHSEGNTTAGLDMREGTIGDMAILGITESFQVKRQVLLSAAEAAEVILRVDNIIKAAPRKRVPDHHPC
T20 sequence (P10599 whole entry): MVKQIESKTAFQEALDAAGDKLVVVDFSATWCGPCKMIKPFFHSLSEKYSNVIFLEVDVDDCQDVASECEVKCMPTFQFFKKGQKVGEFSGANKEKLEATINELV
T24 sequence (P04075 whole entry): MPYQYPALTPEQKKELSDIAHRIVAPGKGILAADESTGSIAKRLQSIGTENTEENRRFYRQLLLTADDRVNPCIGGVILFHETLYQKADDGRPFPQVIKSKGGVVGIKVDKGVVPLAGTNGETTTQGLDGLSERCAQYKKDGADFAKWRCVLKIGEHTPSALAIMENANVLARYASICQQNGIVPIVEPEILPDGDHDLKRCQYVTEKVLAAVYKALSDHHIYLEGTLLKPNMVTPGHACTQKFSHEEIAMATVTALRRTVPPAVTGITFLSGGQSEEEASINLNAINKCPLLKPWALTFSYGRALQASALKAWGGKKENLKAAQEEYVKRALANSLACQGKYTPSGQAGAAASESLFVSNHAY
T1 sequence (Q01469 whole entry): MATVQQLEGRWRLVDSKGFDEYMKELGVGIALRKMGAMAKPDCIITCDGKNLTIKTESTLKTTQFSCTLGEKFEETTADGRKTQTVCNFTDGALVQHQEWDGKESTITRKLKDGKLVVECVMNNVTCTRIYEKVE
T17 sequence (Q86TI2 whole entry): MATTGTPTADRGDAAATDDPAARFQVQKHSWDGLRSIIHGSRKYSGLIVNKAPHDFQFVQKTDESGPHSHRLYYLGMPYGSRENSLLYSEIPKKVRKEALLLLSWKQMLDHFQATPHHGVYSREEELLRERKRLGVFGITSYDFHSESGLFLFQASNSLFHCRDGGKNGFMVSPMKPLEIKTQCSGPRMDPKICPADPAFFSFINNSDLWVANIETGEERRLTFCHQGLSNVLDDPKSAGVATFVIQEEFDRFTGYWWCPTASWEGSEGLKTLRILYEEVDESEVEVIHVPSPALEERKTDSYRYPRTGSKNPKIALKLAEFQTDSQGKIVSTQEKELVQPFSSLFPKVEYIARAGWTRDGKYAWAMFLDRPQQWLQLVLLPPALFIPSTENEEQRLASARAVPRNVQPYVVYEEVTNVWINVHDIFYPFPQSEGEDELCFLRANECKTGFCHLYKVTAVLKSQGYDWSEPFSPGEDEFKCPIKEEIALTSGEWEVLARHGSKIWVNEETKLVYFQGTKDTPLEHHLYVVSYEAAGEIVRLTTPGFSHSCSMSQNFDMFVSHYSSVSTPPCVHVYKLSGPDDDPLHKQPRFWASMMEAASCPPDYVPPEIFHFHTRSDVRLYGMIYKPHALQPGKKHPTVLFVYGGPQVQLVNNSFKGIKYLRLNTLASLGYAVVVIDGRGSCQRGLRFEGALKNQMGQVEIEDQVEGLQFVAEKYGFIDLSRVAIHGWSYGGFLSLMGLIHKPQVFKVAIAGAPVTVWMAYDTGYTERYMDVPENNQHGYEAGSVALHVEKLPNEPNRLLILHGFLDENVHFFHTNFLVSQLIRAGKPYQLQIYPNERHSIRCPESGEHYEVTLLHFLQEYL
T10 sequence (P81605 20-110): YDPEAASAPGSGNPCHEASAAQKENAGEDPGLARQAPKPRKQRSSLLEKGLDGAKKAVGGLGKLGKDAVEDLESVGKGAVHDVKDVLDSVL
T8 sequence (P12277 whole entry): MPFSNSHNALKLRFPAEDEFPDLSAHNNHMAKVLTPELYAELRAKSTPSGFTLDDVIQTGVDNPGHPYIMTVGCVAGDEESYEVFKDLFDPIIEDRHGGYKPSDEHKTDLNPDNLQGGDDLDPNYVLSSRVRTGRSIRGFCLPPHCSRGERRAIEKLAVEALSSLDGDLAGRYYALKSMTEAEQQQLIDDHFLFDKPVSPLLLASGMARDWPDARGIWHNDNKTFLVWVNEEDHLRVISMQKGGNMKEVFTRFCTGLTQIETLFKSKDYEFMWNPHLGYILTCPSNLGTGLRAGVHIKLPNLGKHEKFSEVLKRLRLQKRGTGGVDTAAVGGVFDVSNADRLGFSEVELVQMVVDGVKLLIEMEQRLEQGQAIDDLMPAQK
T15 sequence (Q00839 whole entry): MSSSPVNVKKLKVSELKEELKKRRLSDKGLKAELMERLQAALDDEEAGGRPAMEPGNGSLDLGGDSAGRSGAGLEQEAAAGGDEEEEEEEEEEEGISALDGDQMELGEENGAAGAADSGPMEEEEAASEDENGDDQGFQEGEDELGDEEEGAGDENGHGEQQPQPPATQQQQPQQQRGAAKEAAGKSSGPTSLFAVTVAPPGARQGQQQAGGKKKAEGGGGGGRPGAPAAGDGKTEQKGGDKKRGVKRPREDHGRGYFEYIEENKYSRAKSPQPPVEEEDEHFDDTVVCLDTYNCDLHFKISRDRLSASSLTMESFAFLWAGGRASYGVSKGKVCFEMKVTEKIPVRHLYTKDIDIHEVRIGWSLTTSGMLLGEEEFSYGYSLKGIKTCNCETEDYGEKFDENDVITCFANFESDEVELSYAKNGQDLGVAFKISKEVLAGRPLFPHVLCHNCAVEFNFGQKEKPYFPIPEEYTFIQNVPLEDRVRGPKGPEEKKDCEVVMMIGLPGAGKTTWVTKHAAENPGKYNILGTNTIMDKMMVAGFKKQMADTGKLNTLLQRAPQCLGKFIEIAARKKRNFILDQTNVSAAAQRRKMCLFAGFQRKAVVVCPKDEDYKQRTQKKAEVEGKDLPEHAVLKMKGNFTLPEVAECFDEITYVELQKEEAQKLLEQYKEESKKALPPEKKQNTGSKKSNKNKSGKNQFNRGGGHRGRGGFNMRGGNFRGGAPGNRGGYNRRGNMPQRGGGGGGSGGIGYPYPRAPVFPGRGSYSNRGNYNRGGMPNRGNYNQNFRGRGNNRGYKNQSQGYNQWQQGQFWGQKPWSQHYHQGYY
T5 sequence (P14618 whole entry): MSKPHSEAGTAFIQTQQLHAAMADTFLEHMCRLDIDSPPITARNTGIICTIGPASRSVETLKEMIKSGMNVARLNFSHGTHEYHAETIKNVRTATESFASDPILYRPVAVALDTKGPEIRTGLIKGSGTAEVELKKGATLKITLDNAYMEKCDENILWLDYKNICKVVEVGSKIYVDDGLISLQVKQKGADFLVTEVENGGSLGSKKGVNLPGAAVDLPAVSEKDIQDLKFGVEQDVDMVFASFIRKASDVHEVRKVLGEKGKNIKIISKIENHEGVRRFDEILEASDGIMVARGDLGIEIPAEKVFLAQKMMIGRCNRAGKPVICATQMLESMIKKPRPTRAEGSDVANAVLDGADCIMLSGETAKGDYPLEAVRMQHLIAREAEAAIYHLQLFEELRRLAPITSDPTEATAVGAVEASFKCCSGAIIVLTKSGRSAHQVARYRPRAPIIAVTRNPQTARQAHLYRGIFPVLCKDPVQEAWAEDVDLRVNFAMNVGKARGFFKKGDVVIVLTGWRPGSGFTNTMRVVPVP
T2 sequence (P37837 whole entry): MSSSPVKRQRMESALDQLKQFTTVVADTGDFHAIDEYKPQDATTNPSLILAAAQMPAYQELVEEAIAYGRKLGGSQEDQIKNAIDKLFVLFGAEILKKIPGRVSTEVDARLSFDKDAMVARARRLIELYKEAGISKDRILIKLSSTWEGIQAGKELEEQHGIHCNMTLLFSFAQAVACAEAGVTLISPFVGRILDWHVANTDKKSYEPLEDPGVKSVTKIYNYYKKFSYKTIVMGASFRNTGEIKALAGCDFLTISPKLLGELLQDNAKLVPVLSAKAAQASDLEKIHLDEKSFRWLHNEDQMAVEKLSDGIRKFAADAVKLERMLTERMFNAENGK

SMILES: C#CCCCP(=O)(OCC)N1CCCC(N)C1=O.O=C(O)C(F)(F)F (mixture of isomers) [Compound 9]
- proteins significantly enriched by the alkyne probe ([1]; 10 µM probe, HEK293 lysates): significant enrichment of only two proteins, namely DPP9 and the off-target prolyl endopeptidase (PREP)
- Log2-fold change (9/DMSO) ([1]; protein EEF1A1;EEF1A1P5;EEF1A2): 0.04533
- Log2-fold change (9/DMSO) ([1]; protein EIF5A;EIF5AL1): 1.278
- Log2-fold change (9/DMSO) [1, 30]: 0.83
- Log2-fold change (9/DMSO) ([1]; protein HNRNPH1;HNRNPH2): -0.1168
- Log2-fold change (9/DMSO) ([1]; protein ID A0A1B0GV53): -4.4932
- Log2-fold change (9/DMSO) ([1]; protein NME1;NME2): 0.34
- Log2-fold change (9/DMSO) ([1]; protein PABPC1;PABPC3): 0.8323
- Log2-fold change (9/DMSO) ([1]; protein PGAM1;PGAM2): 1.799
- Log2-fold change (9/DMSO) ([1]; protein TUBB4B;TUBB4A): 1.386
- Log2-fold change (9/DMSO) [1, 31]: -1.664
- Log2-fold change (9/DMSO) [2]: -0.287
- Log2-fold change (9/DMSO) [3]: 0.3993
- Log2-fold change (9/DMSO) [4]: -0.9831
- Log2-fold change (9/DMSO) [5]: -0.6769
- Log2-fold change (9/DMSO) [6]: -0.3682
- Log2-fold change (9/DMSO) [7]: 0.5658
- Log2-fold change (9/DMSO) [8]: -0.2704
- Log2-fold change (9/DMSO) [9]: 0.9157
- Log2-fold change (9/DMSO) [10]: 0.889
- Log2-fold change (9/DMSO) [11]: -2.5876
- Log2-fold change (9/DMSO) [12]: 0.2377
- Log2-fold change (9/DMSO) [13]: -1.284
- Log2-fold change (9/DMSO) [14]: -0.276
- Log2-fold change (9/DMSO) [15]: -0.08905
- Log2-fold change (9/DMSO) [16]: -0.419
- Log2-fold change (9/DMSO) [17]: -0.5289
- Log2-fold change (9/DMSO) [18]: 5.502
- Log2-fold change (9/DMSO) [19]: 0.6761
- Log2-fold change (9/DMSO) [20]: 0.1297
- Log2-fold change (9/DMSO) [21]: 1.146
- Log2-fold change (9/DMSO) [22]: 0.6133
- Log2-fold change (9/DMSO) [23]: 0.5243
- Log2-fold change (9/DMSO) [24]: 0.2112
- Log2-fold change (9/DMSO) [25]: 0.3187
- Log2-fold change (9/DMSO) [26]: 1.1495
- Log2-fold change (9/DMSO) [27]: 0.8793
- Log2-fold change (9/DMSO) [28]: -0.3595
- Log2-fold change (9/DMSO) [29]: 1.809

SMILES: CCCCCc1ccc(SCCP(=O)(OCC)N2CCC[C@H](N)C2=O)cc1.O=C(O)C(F)(F)F (some centres unmarked) [Compound 16]
- competition of labeling by probe 9 ([1]; 50 µM competitor, 10 µM 9, HEK293 lysates): solely DPP9 was competed
- Log2-fold change (16/9) ([1]; protein EEF1A1;EEF1A1P5;EEF1A2): -1.204
- Log2-fold change (16/9) ([1]; protein EIF5A;EIF5AL1): -2.135
- Log2-fold change (16/9) [1, 30]: -0.04142
- Log2-fold change (16/9) ([1]; protein HNRNPH1;HNRNPH2): 0.1964
- Log2-fold change (16/9) ([1]; protein HSPA1A;HSPA1B): -0.2164
- Log2-fold change (16/9) ([1]; protein ID A0A1B0GV53): 0.5692
- Log2-fold change (16/9) ([1]; protein NME1;NME2): -0.08451
- Log2-fold change (16/9) ([1]; protein PABPC1;PABPC3): -0.421
- Log2-fold change (16/9) ([1]; protein PGAM1;PGAM2): -2.097
- Log2-fold change (16/9) ([1]; protein RPLP0;RPLP0P6): -0.5558
- Log2-fold change (16/9) ([1]; protein TUBB4B;TUBB4A): -2.026
- Log2-fold change (16/9) [1, 31]: 0.5881
- Log2-fold change (16/9) [2]: 0.6319
- Log2-fold change (16/9) [3]: 0.1822
- Log2-fold change (16/9) [4]: 0.1177
- Log2-fold change (16/9) [5]: 0.1121
- Log2-fold change (16/9) [6]: 0.00104
- Log2-fold change (16/9) [7]: -1.91
- Log2-fold change (16/9) [8]: -0.7288
- Log2-fold change (16/9) [9]: -0.7041
- Log2-fold change (16/9) [10]: -2.217
- Log2-fold change (16/9) [11]: 2.05
- Log2-fold change (16/9) [12]: 0.3661
- Log2-fold change (16/9) [13]: 0.04221
- Log2-fold change (16/9) [14]: 0.3401
- Log2-fold change (16/9) [15]: -1.548
- Log2-fold change (16/9) [16]: -1.015
- Log2-fold change (16/9) [17]: -0.1373
- Log2-fold change (16/9) [18]: -5.229
- Log2-fold change (16/9) [19]: -0.2833
- Log2-fold change (16/9) [20]: -0.758
- Log2-fold change (16/9) [21]: -0.6696
- Log2-fold change (16/9) [22]: -1.54
- Log2-fold change (16/9) [23]: -0.09939
- Log2-fold change (16/9) [24]: -0.2717
- Log2-fold change (16/9) [25]: -0.5623
- Log2-fold change (16/9) [26]: -0.827
- Log2-fold change (16/9) [27]: -1.967
- Log2-fold change (16/9) [28]: 0.07056
- Log2-fold change (16/9) [29]: -0.8436
